{"source": "the supplement of paper PMC10307832", "assay_in_all_cases": "relative viability (nuclei count vs DMSO), 5 days (fraction); higher = more cells survive", "key": {"LCLC-103H": {"test_system": "LCLC-103H", "procedure,_shortened": "(§1)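 Lung cancer cell lines, seeded in 1536-well plates, were treated the following day by pin tool with a single drug or with five library-drug doses (not always all listed) in √10 steps on top of a fixed anchor-drug dose. Cells were fixed and nuclei stained in one step after 5 days, and nuclei were counted. Relative viability is the nuclei count for treated wells divided by that for vehicle wells, reported as medians of duplicate plates.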"}, "LXF-289": {"test_system": "LXF-289", "procedure,_shortened": "as §1"}, "NCI-H1355": {"test_system": "NCI-H1355", "procedure,_shortened": "as §1"}, "NCI-H1651": {"test_system": "NCI-H1651", "procedure,_shortened": "as §1"}, "NCI-H1755": {"test_system": "NCI-H1755", "procedure,_shortened": "as §1"}, "NCI-H1915": {"test_system": "NCI-H1915", "procedure,_shortened": "as §1"}, "NCI-H2347": {"test_system": "NCI-H2347", "procedure,_shortened": "as §1"}, "NCI-H3122": {"test_system": "NCI-H3122", "procedure,_shortened": "as §1"}, "NCI-H322M": {"test_system": "NCI-H322M", "procedure,_shortened": "as §1"}, "NCI-H441": {"test_system": "NCI-H441", "procedure,_shortened": "as §1"}, "NCI-H460": {"test_system": "NCI-H460", "procedure,_shortened": "as §1"}, "NCI-H520": {"test_system": "NCI-H520", "procedure,_shortened": "as §1"}, "NCI-H522": {"test_system": "NCI-H522", "procedure,_shortened": "as §1"}, "NCI-H596": {"test_system": "NCI-H596", "procedure,_shortened": "as §1"}, "NCI-H661": {"test_system": "NCI-H661", "procedure,_shortened": "as §1"}, "NCI-H727": {"test_system": "NCI-H727", "procedure,_shortened": "as §1"}, "PC-14": {"test_system": "PC-14", "procedure,_shortened": "as §1"}, "RERF-LC-KJ": {"test_system": "RERF-LC-KJ", "procedure,_shortened": "as §1"}, "SK-MES-1": {"test_system": "SK-MES-1", "procedure,_shortened": "as §1"}, "SW 900": {"test_system": "SW 900", "procedure,_shortened": "as §1"}}, "data": [{"smiles": "O=c1cc(-c2cccc3c2Sc2ccccc2S3)oc(N2CCOCC2)c1", "note": "+ Cc1cc(Nc2cc(N3CCN(C)CC3)nc(Sc3ccc(NC(=O)C4CC4)cc3)n2)n[nH]1 [Tozasertib] (partner 0.1 µM)", "values": [{"measurement": "relative viability", "setting": "LCLC-103H; first compound 0.08 µM", "value": 0.285}, {"measurement": "relative viability", "setting": "LCLC-103H; first compound 0.253 µM", "value": 0.502}, {"measurement": "relative viability", "setting": "LCLC-103H; first compound 0.8 µM", "value": 0.494}, {"measurement": "relative viability", "setting": "LCLC-103H; first compound 2.53 µM", "value": 0.369}, {"measurement": "relative viability", "setting": "LCLC-103H; first compound 8 µM", "value": 0.473}, {"measurement": "relative viability", "setting": "LXF-289; first compound 0.08 µM", "value": 0.186}, {"measurement": "relative viability", "setting": "LXF-289; first compound 0.253 µM", "value": 0.164}, {"measurement": "relative viability", "setting": "LXF-289; first compound 0.8 µM", "value": 0.223}, {"measurement": "relative viability", "setting": "LXF-289; first compound 2.53 µM", "value": 0.15}, {"measurement": "relative viability", "setting": "LXF-289; first compound 8 µM", "value": 0.17}, {"measurement": "relative viability", "setting": "NCI-H1355; first compound 0.08 µM", "value": 0.521}, {"measurement": "relative viability", "setting": "NCI-H1355; first compound 0.253 µM", "value": 0.511}, {"measurement": "relative viability", "setting": "NCI-H1355; first compound 0.8 µM", "value": 0.483}, {"measurement": "relative viability", "setting": "NCI-H1355; first compound 2.53 µM", "value": 0.52}, {"measurement": "relative viability", "setting": "NCI-H1355; first compound 8 µM", "value": 0.346}, {"measurement": "relative viability", "setting": "NCI-H1651; first compound 0.08 µM", "value": 0.669}, {"measurement": "relative viability", "setting": "NCI-H1651; first compound 0.253 µM", "value": 0.668}, {"measurement": "relative viability", "setting": "NCI-H1651; first compound 0.8 µM", "value": 0.625}, {"measurement": "relative viability", "setting": "NCI-H1651; first compound 2.53 µM", "value": 0.672}, {"measurement": "relative viability", "setting": "NCI-H1651; first compound 8 µM", "value": 0.669}, {"measurement": "relative viability", "setting": "NCI-H1755; first compound 0.08 µM", "value": 0.609}, {"measurement": "relative viability", "setting": "NCI-H1755; first compound 0.253 µM", "value": 0.582}, {"measurement": "relative viability", "setting": "NCI-H1755; first compound 0.8 µM", "value": 0.592}, {"measurement": "relative viability", "setting": "NCI-H1755; first compound 2.53 µM", "value": 0.64}, {"measurement": "relative viability", "setting": "NCI-H1755; first compound 8 µM", "value": 0.567}, {"measurement": "relative viability", "setting": "NCI-H1915; first compound 0.08 µM", "value": 0.495}, {"measurement": "relative viability", "setting": "NCI-H1915; first compound 0.253 µM", "value": 0.446}, {"measurement": "relative viability", "setting": "NCI-H1915; first compound 0.8 µM", "value": 0.428}, {"measurement": "relative viability", "setting": "NCI-H1915; first compound 2.53 µM", "value": 0.401}, {"measurement": "relative viability", "setting": "NCI-H1915; first compound 8 µM", "value": 0.332}, {"measurement": "relative viability", "setting": "NCI-H2347; first compound 0.08 µM", "value": 0.668}, {"measurement": "relative viability", "setting": "NCI-H2347; first compound 0.253 µM", "value": 0.605}, {"measurement": "relative viability", "setting": "NCI-H2347; first compound 0.8 µM", "value": 0.351}, {"measurement": "relative viability", "setting": "NCI-H2347; first compound 2.53 µM", "value": 0.53}, {"measurement": "relative viability", "setting": "NCI-H2347; first compound 8 µM", "value": 0.404}, {"measurement": "relative viability", "setting": "NCI-H3122; first compound 0.08 µM", "value": 0.488}, {"measurement": "relative viability", "setting": "NCI-H3122; first compound 0.253 µM", "value": 0.404}, {"measurement": "relative viability", "setting": "NCI-H3122; first compound 0.8 µM", "value": 0.355}, {"measurement": "relative viability", "setting": "NCI-H3122; first compound 2.53 µM", "value": 0.424}, {"measurement": "relative viability", "setting": "NCI-H3122; first compound 8 µM", "value": 0.479}, {"measurement": "relative viability", "setting": "NCI-H322M; first compound 0.08 µM", "value": 0.494}, {"measurement": "relative viability", "setting": "NCI-H322M; first compound 0.253 µM", "value": 0.446}, {"measurement": "relative viability", "setting": "NCI-H322M; first compound 0.8 µM", "value": 0.464}, {"measurement": "relative viability", "setting": "NCI-H322M; first compound 2.53 µM", "value": 0.449}, {"measurement": "relative viability", "setting": "NCI-H322M; first compound 8 µM", "value": 0.467}, {"measurement": "relative viability", "setting": "NCI-H441; first compound 0.08 µM", "value": 0.686}, {"measurement": "relative viability", "setting": "NCI-H441; first compound 0.253 µM", "value": 0.693}, {"measurement": "relative viability", "setting": "NCI-H441; first compound 0.8 µM", "value": 0.793}, {"measurement": "relative viability", "setting": "NCI-H441; first compound 2.53 µM", "value": 0.598}, {"measurement": "relative viability", "setting": "NCI-H441; first compound 8 µM", "value": 0.632}, {"measurement": "relative viability", "setting": "NCI-H460; first compound 0.08 µM", "value": 0.453}, {"measurement": "relative viability", "setting": "NCI-H460; first compound 0.253 µM", "value": 0.364}, {"measurement": "relative viability", "setting": "NCI-H460; first compound 0.8 µM", "value": 0.147}, {"measurement": "relative viability", "setting": "NCI-H460; first compound 2.53 µM", "value": 0.257}, {"measurement": "relative viability", "setting": "NCI-H460; first compound 8 µM", "value": 0.166}, {"measurement": "relative viability", "setting": "NCI-H520; first compound 0.08 µM", "value": 0.383}, {"measurement": "relative viability", "setting": "NCI-H520; first compound 0.253 µM", "value": 0.375}, {"measurement": "relative viability", "setting": "NCI-H520; first compound 0.8 µM", "value": 0.502}, {"measurement": "relative viability", "setting": "NCI-H520; first compound 2.53 µM", "value": 0.472}, {"measurement": "relative viability", "setting": "NCI-H520; first compound 8 µM", "value": 0.421}, {"measurement": "relative viability", "setting": "NCI-H522; first compound 0.08 µM", "value": 0.632}, {"measurement": "relative viability", "setting": "NCI-H522; first compound 0.253 µM", "value": 0.544}, {"measurement": "relative viability", "setting": "NCI-H522; first compound 0.8 µM", "value": 0.512}, {"measurement": "relative viability", "setting": "NCI-H522; first compound 2.53 µM", "value": 0.651}, {"measurement": "relative viability", "setting": "NCI-H522; first compound 8 µM", "value": 0.562}, {"measurement": "relative viability", "setting": "NCI-H596; first compound 0.08 µM", "value": 0.758}, {"measurement": "relative viability", "setting": "NCI-H596; first compound 0.253 µM", "value": 0.892}, {"measurement": "relative viability", "setting": "NCI-H596; first compound 0.8 µM", "value": 1.08}, {"measurement": "relative viability", "setting": "NCI-H596; first compound 2.53 µM", "value": 0.762}, {"measurement": "relative viability", "setting": "NCI-H596; first compound 8 µM", "value": 0.997}, {"measurement": "relative viability", "setting": "NCI-H661; first compound 0.08 µM", "value": 0.357}, {"measurement": "relative viability", "setting": "NCI-H661; first compound 0.253 µM", "value": 0.357}, {"measurement": "relative viability", "setting": "NCI-H661; first compound 0.8 µM", "value": 0.351}, {"measurement": "relative viability", "setting": "NCI-H661; first compound 2.53 µM", "value": 0.339}, {"measurement": "relative viability", "setting": "NCI-H661; first compound 8 µM", "value": 0.353}, {"measurement": "relative viability", "setting": "NCI-H727; first compound 0.08 µM", "value": 0.656}, {"measurement": "relative viability", "setting": "NCI-H727; first compound 0.253 µM", "value": 0.633}, {"measurement": "relative viability", "setting": "NCI-H727; first compound 0.8 µM", "value": 0.609}, {"measurement": "relative viability", "setting": "NCI-H727; first compound 2.53 µM", "value": 0.535}, {"measurement": "relative viability", "setting": "NCI-H727; first compound 8 µM", "value": 0.668}, {"measurement": "relative viability", "setting": "PC-14; first compound 0.08 µM", "value": 0.594}, {"measurement": "relative viability", "setting": "PC-14; first compound 0.253 µM", "value": 0.572}, {"measurement": "relative viability", "setting": "PC-14; first compound 0.8 µM", "value": 0.548}, {"measurement": "relative viability", "setting": "PC-14; first compound 8 µM", "value": 0.554}, {"measurement": "relative viability", "setting": "RERF-LC-KJ; first compound 0.08 µM", "value": 0.417}, {"measurement": "relative viability", "setting": "RERF-LC-KJ; first compound 0.253 µM", "value": 0.478}, {"measurement": "relative viability", "setting": "RERF-LC-KJ; first compound 0.8 µM", "value": 0.539}, {"measurement": "relative viability", "setting": "RERF-LC-KJ; first compound 2.53 µM", "value": 0.411}, {"measurement": "relative viability", "setting": "RERF-LC-KJ; first compound 8 µM", "value": 0.389}, {"measurement": "relative viability", "setting": "SK-MES-1; first compound 0.08 µM", "value": 0.902}, {"measurement": "relative viability", "setting": "SK-MES-1; first compound 0.253 µM", "value": 1.04}, {"measurement": "relative viability", "setting": "SK-MES-1; first compound 0.8 µM", "value": 0.879}, {"measurement": "relative viability", "setting": "SK-MES-1; first compound 2.53 µM", "value": 0.848}, {"measurement": "relative viability", "setting": "SK-MES-1; first compound 8 µM", "value": 0.852}, {"measurement": "relative viability", "setting": "SW 900; first compound 0.08 µM", "value": 0.754}, {"measurement": "relative viability", "setting": "SW 900; first compound 0.253 µM", "value": 0.543}, {"measurement": "relative viability", "setting": "SW 900; first compound 0.8 µM", "value": 0.433}, {"measurement": "relative viability", "setting": "SW 900; first compound 2.53 µM", "value": 0.486}, {"measurement": "relative viability", "setting": "SW 900; first compound 8 µM", "value": 0.5}]}]}
